Measurements taken from patent publication US20250352527A1, “METHODS FOR TREATING VIRAL INFECTIONS, ORGAN INJURY, AND RELATED CONDITIONS” (Akebia Therapeutics, Inc., priority 2021, published 2025).
Entries after “also recorded” stand apart in the source; their conditions may differ.

How the values were obtained:
[1] = Body weight change from day -2 in LPS-induced lung inflammation model; format: in vivo, mice; conditions: vs vehicle disease control; for body weight change from day -2: 6 hours post-LPS
Description: (§1) All animals survived to study termination.
Body weight measurements were collected and the animals were euthanized for necropsy and terminal sample collection on day 0 or day 1.
The mice were weighed for randomization on study day −2 and were weighed again on day 0.

[2] = tested on: TNFα; experiment: Luminex cytokine levels in BAL: TNFα; format: in vivo, mice; conditions: vs vehicle disease control
Description: as §1
• 1. […] Seal the plate with a plate sealer.

[3] = tested on: hospitalized patients with coronavirus disease 2019 (COVID-19); experiment: Randomized, double-blind, placebo-controlled clinical trial for prevention and treatment of ARDS; format: in vivo, human; conditions: 900 mg once daily for 14 days
Protocol: This example describes use of 5-(3-chlorophenyl)-3-hydroxypyridine-2-carbonyl]amino}acetic acid (vadadustat) in a multicenter, randomized, double-blind, placebo-controlled Bayesian adaptive clinical for the prevention and treatment of acute respiratory distress syndrome (ARDS) in hospitalized patients with coronavirus disease 2019 (COVID-19).
Following screening, patients are randomized in a 1:1 ratio to either vadadustat 900 mg or placebo. Randomization is stratified by site, and MSOFA score at baseline (<4 and >4).
A subject may receive vadadustat (e.g., 900 mg vadadustat as 6 tablets once daily) for 14 days and without regard for meals at approximately the same time each day. Tablets can be crushed using a pill crusher and administered to an intubated patient through a nasogastric tube.
Efficacy may also be assessed according to any of the following (including any combination thereof): • 1. The proportion of patients at day 14 who are dead (8) or hospitalized, on invasive mechanical ventilation or ECMO (7) or hospitalized, on non-invasive ventilation or high flow oxygen devices (6) on the NIAID-OS. • 2. Proportions of patients with a score of 0 at 14 days on the MSOFA (Modified Sequential Organ Failure Assessment) scale:
• 3. Average MSOFA scores at day 7 and day 14. • 4. Proportion of patients who develop ARDS or experienced increased ARDS severity from baseline based on the Berlin scale. • 5. Ventilator-free survival at day 7 and day 14. • 6. Overall survival at day 7 and day 14. • 7. Proportion of patients with hypotension (MAP (Mean Arterial Pressure)<70 mm Hg or requirement for inotropes or vasopressors to maintain blood pressure) at day 7 and day 14. • 8. Proportion of patients with acute kidney injury at day 7 and day 14. • 9. Time to hospital discharge.

[4] = tested on: IL-6; experiment: Luminex cytokine levels in BAL: IL-6; conditions: vs vehicle disease control
[5] = 100 mg/kg PO single dose 1 h post-LPS, 8 hours post-LPS
[6] = 300 mg/kg PO single dose 1 h post-LPS, 8 hours post-LPS
[7] = 100 mg/kg PO QD days -2 to 0 (final dose 1 h pre-LPS), 6 hours post-LPS
[8] = 100 mg/kg PO QD days -2 to 0 (final dose 7 h post-LPS), 24 hours post-LPS
[9] = day 7 and day 14, compared to placebo

Compound: O=C(O)CNC(=O)c1ncc(-c2cccc(Cl)c2)cc1O [Compound 1, {[5-(3-chlorophenyl)-3-hydroxypyridine-2-carbonyl]amino}acetic acid]
- absolute body weight change ([1]; 100 mg/kg PO QD days -2 to 0 (final dose 7 h post-LPS, 4 doses), 24 hours post-LPS): did not differ statistically
- absolute body weight change [1, 5]: no significant differences
- body weight change from day -2 ([1]; 300 mg/kg PO QD days -2 to 0 (final dose 1 h pre-LPS)): Significantly increased body weight loss; also recorded: statistically significant absolute weight loss
- absolute body weight change ([1]; 300 mg/kg PO QD days -2 to 0 (final dose 7 h post-LPS, 4 doses), 24 hours post-LPS): did not differ statistically
- absolute body weight change [1, 6]: no significant differences
- TNFα levels in BAL fluids [2, 7]: did not differ statistically
- TNFα levels in BAL fluids [2, 8]: Significantly increased; also recorded: significant increases
- TNFα levels in BAL fluids [2, 5]: decrease in IL-6 and TNFα levels at 8 hours post-LPS compared to vehicle disease control, though not statistically significant; also recorded: no significant differences
- TNFα levels in BAL fluids [2, 6]: decrease in IL-6 and TNFα levels at 8 hours post-LPS compared to vehicle disease control, though not statistically significant; also recorded: no significant differences
- proportions of patients with a score of 0 on the MSOFA ([3]; at 14 days, compared to placebo): an increase
- proportion of patients who develop ARDS or experienced increased ARDS severity from baseline based on the Berlin scale ([3]; compared to placebo): a lower or a reduction
- average MSOFA scores [3, 9]: a lower or a reduction
- overall survival [3, 9]: a greater or an increase
- proportion of patients with hypotension (MAP <70 mm Hg or requirement for inotropes or vasopressors) [3, 9]: a lower or a reduction
- ventilator-free survival [3, 9]: a greater or an increase
- proportion of patients with acute kidney injury ([3]; day 7 and day 14, versus placebo): a lower or a reduction
- proportion of patients who are dead (8), on invasive mechanical ventilation or ECMO (7) or on non-invasive ventilation or high flow oxygen devices (6) on the NIAID-OS ([3]; day 14, compared to placebo): a lower or a reduction
- time to hospital discharge ([3]; versus placebo): a shorter or a reduction
- IL-6 levels in BAL fluids [4, 7]: decrease in IL-6 levels at 6 hours post-LPS compared to vehicle disease control, though not statistically significant; also recorded: did not differ statistically
- IL-6 levels in BAL fluids [4, 8]: Significantly increased; also recorded: significant increases
- IL-6 levels in BAL fluids [4, 5]: decrease in IL-6 and TNFα levels at 8 hours post-LPS compared to vehicle disease control, though not statistically significant; also recorded: no significant differences
- IL-6 levels in BAL fluids ([4]; 300 mg/kg PO QD days -2 to 0 (final dose 1 h pre-LPS), 6 hours post-LPS): decrease in IL-6 levels at 6 hours post-LPS compared to vehicle disease control, though not statistically significant
- IL-6 levels in BAL fluids [4, 6]: decrease in IL-6 and TNFα levels at 8 hours post-LPS compared to vehicle disease control, though not statistically significant; also recorded: no significant differences

Compound: C[C@@H]1C[C@H]2[C@@H]3CCC4=CC(=O)C=C[C@]4(C)[C@@]3(F)[C@@H](O)C[C@]2(C)[C@@]1(O)C(=O)CO [dexamethasone, reference compound]
- body weight change from day -2 ([1]; 3 mg/kg PO 1x 1 h pre-LPS): did not differ statistically
